The source of these data is US9326515B2, “Fungicidal 3-[(1,3-thiazol-4-ylmethoxyimino)(phenyl)methyl]-2-substituted-1,2,4-oxadiazol-5(2H)-one derivatives” (BAYER INTELLECTUAL PROPERTY GMBH, priority 2011, dated 2016).

Like-named read-outs stand apart in the source and are kept apart here.

Series [1] relates to Botrytis cinerea. In words: Example C: in vivo preventive test on Botrytis cinerea (grey mould). The note with it: 500 ppm, spray on gherkin plants, contaminated after 24 hours, grading 4 to 5 days after contamination vs control plants. How it is done: (§1) The active ingredients tested are prepared by homogenization in a mixture of acetone/tween/DMSO and then diluted with water to obtain the desired active material concentration.
(§2) Gherkin plants (“Vert petit de Paris” variety), sown in starter cups on a 50/50 peat soil-pozzolana substrate and grown at 24° C., are treated at the Z11 cotyledon stage by spraying with the active ingredient prepared as described above. Plants, used as controls, are treated with the mixture of acetone/tween/DMSO/water not containing the active material.
After 24 hours, the plants are contaminated by spraying the cotyledons with an aqueous suspension of cryopreserved Botrytis cinerea spores (50 000 spores per ml). The spores are suspended in a nutrient solution composed of 10 g/L of PDB, 50 g/L of D-Fructose, 2 g/L of NH4NO3 and 1 g/L of KH2PO4. The contaminated gherkin plants are incubated at 17° C. and at 90% relative humidity.
Grading (% of efficacy) is carried out 4 to 5 days after the contamination, in comparison with the control plants.
(§3) Under these conditions, good (at least 70%) or total protection is observed at a dose of 500 ppm with the following compounds: […]

The subject of series [2] is Phytophthora infestans. Type of series: in vivo. Particulars: 500 ppm, spray on tomato plants, contaminated after 24 hours, grading 5 days after contamination vs control plants.
For series [3] the following is noted: pH 2.7.
Series [4] relates to Plasmopara viticola. In words: Example I: in vivo preventive test on Plasmopara viticola (grapevines). Particulars: 10 ppm of active ingredient, spray on young grapevine plants, inoculated after spray coating dried, evaluated 6 days after inoculation. How it is done: To produce a suitable preparation of active compound, 1 part by weight of active compound is mixed with the stated amounts of solvent and emulsifier, and the concentrate is diluted with water to the desired concentration.
To test for preventive activity, young plants are sprayed with the preparation of active compound at the stated rate of application. After the spray coating has dried on, the plants are inoculated with an aqueous spore suspension of Plasmopara viticola and then remain for 1 day in an incubation cabinet at approximately 20° C. and a relative atmospheric humidity of 100%. The plant is subsequently placed for 4 days in a greenhouse at approximately 21° C. and a relative atmospheric humidity of approximately 90%. The plants are then misted and placed for 1 day in an incubation cabinet.
The test is evaluated 6 days after the inoculation. 0% means an efficacy which corresponds to that of the untreated control, while an efficacy of 100% means that no disease is observed.

For series [5] the following is noted: for chromatographic logP: pH 2.7; for LogP: table 1, compounds of formula (I), HPLC reversed phase, pH 2.7, 0.1% formic acid in water / acetonitrile gradient.
Series [6] deals with Phytophthora infestans. Type of series: in vivo. Particulars: 100 ppm of active ingredient, spray on young tomato plants, inoculated one day after treatment, evaluated 7 days after inoculation.
Series [7] has as its system Sphaerotheca fuliginea. In words: Example D: in vivo preventive test on Sphaerotheca fuliginea (powdery mildew on cucurbits). Particulars: 500 ppm, spray on gherkin plants, contaminated after 24 hours, grading 12 days after contamination vs control plants. How it is done:
as §1, §2
After 24 hours, the plants are contaminated by spraying the cotyledons with an aqueous suspension of Sphaerotheca fuliginea spores (100 000 spores per ml). The spores are collected from infected plants. The contaminated gherkin plants are incubated at about 20° C. and at 70-80% relative humidity.
(§4) Grading (% of efficacy) is carried out 12 days after the contamination, in comparison with the control plants.
as §3

Series [8] deals with Pyrenophora teres. In words: Example E: in vivo preventive test on Pyrenophora teres (net blotch on barley). Particulars: 500 ppm, spray on barley plants, contaminated after 24 hours, grading 14 days after contamination vs control plants. On the procedure: (§5) The active ingredients tested are prepared by homogenization in a mixture of acetone/tween/DMSO, and then diluted with water to obtain the desired active material concentration.
Barley plants (“Plaisant” variety), sown in starter cups on a 50/50 peat soil-pozzolana substrate and grown at 22° C., are treated at the 1-leaf stage (10 cm height) by spraying with the active ingredient prepared as described above. Plants, used as controls, are treated with the mixture of acetone/tween/DMSO/water not containing the active material.
After 24 hours, the plants are contaminated by spraying the leaves with an aqueous suspension of Pyrenophora teres spores (12 000 spores per ml). The spores are collected from a 12-day-old culture. The contaminated barley plants are incubated for 48 hours at 20° C. and at 100% relative humidity, and then for 12 days at 20° C. at 70-80% relative humidity.
Grading (% of efficacy) is carried out 14 days after the contamination, in comparison with the control plants.
as §3

In series [9] the test system is Septoria tritici. In words: Example G: in vivo preventive test on Septoria tritici (leaf spot on wheat). Particulars: 500 ppm, spray on wheat plants, contaminated after 24 hours, grading 24 days after contamination vs control plants. On the procedure: as §5
(§6) Wheat plants (“Scipion” variety), sown in starter cups on a 50/50 peat soil-pozzolana substrate and grown at 22° C., are treated at the 1-leaf stage (10 cm height) by spraying with the active ingredient prepared as described above. Plants, used as controls, are treated with the mixture of acetone/tween/DMSO/water not containing the active material.
After 24 hours, the plants are contaminated by spraying the leaves with an aqueous suspension of cryopreserved Septoria tritici spores (500 000 spores per ml). The contaminated wheat plants are incubated for 72 hours at 18° C. and at 100% relative humidity, and then for 21 days at 90% relative humidity.
Grading (% of efficacy) is carried out 24 days after the contamination, in comparison with the control plants.
as §3

In series [10] the test system is Puccinia recondita. In words: Example F: in vivo preventive test on Puccinia recondita (brown rust on wheat). The note with it: 500 ppm, spray on wheat plants, contaminated after 24 hours, grading 12 days after contamination vs control plants. How it is done:
as §5, §6
After 24 hours, the plants are contaminated by spraying the leaves with an aqueous suspension of Puccinia recondita spores (100 000 spores per ml). The spores are collected from an infected plant and are suspended in water containing 2.5 ml/l of Tween 80 at 10%. The contaminated wheat plants are incubated for 24 hours at 20° C. and at 100% relative humidity, and then for 10 days at 20° C. and at 70-80% relative humidity.
as §4, §3

In the case of `C#CCCC(C)OC(=O)Nc1nc(CO/N=C(/c2ccccc2)c2nc(=O)on2C)cs1` (racemic) [Example 32], the “% efficacy” value is listed as 79% in series [1] and 99% in series [2]. In addition, the LogP in series [3] came out at 3.00.

On to `Cn1oc(=O)nc1/C(=N\OCc1csc(NC(=O)C2COc3ccccc3O2)n1)c1ccccc1` (centres unmarked) [Example 9, N-{4-[({[(Z)-(2-methyl-5-oxo-2,5-dihydro-1,2,4-oxadiazol-3-yl)(phenyl)methylene]amino}oxy)methyl]-1,3-thiazol-2-yl}-2,3-dihydro-1,4-benzodioxine-2-carboxamide], for which the values for the Eff. % in series [4] and in [6] were 97% and 98%, respectively. Further, the chromatographic logP in series [5] is 3.11.

For `CC(OCc1ccccc1)C(=O)Nc1nc(CON=C(c2ccccc2)c2nc(=O)on2C)cs1` (centres unmarked) [Example 19], the “% efficacy” value in [2] is recorded as 100%. Besides, the Eff. % in [4] was 91%. For the same compound, the log partition coefficient (LogP) in series [5] was 3.29.

In the case of `Cn1oc(=O)nc1C(=NOCc1csc(NC(=O)OCCOc2ccccc2)n1)c1ccccc1` [Example 21], the “% efficacy” value in [7] is listed as 75%; in [8], 80%; in series [2] it was 98%; in [9] it was 75%. In series [3], the LogP is listed as 3.19. This compound also had an Eff. % in series [6] of 92%.

Regarding `Cn1oc(=O)nc1/C(=N\OCc1csc(NC(=O)C2CCc3ccccc3O2)n1)c1ccccc1` (centres unmarked) [Example 22, N-{4-[({[(Z)-(2-methyl-5-oxo-2,5-dihydro-1,2,4-oxadiazol-3-yl)(phenyl)methylene]amino}oxy)methyl]-1,3-thiazol-2-yl}chromane-2-carboxamide], the values for the Eff. % in [4] and in [6] were 96% and 100%, respectively. This compound also displayed a chromatographic logP in [5] of 3.35.

In the case of `Cn1oc(=O)nc1C(=NOCc1csc(NC(=O)COC2CCCCC2)n1)c1ccccc1` [Example 23], the “% efficacy” value in series [2] turned out to be 100%. In series [5], this compound showed a lipophilicity (LogP) of 3.42. In addition, in [6], the Eff. % worked out at 100%.

Regarding `Cn1oc(=O)nc1C(=NOCc1csc(NC(=O)C2Cc3ccccc3O2)n1)c1ccccc1` (centres unmarked) [Example 24], the “% efficacy” value in [2] stood at 100%. Further, the Eff. % in series [4] came out at 93%; in series [6] it was 84%. Besides, the lipophilicity (LogP) in [3] stood at 3.06.

For the compound `CC(COc1ccccc1)OC(=O)Nc1nc(CON=C(c2ccccc2)c2nc(=O)on2C)cs1` (centres unmarked) [Example 28], the entries for the “% efficacy” value in series [8], in series [2] and in series [9] were 85%, 97% and 75%, respectively. Moreover, in series [3], the lipophilicity (LogP) was determined as 3.46. In series [6], the Eff. % was 92%.

Consider `C#CCCCOC(=O)Nc1nc(CON=C(c2ccccc2)c2nc(=O)on2C)cs1` [Example 29], for which the results for the “% efficacy” value in [10] and in series [2] were 94% and 95%, respectively. The same compound registered a LogP in [3] of 2.77.

With `C#CCCCCOC(=O)Nc1nc(CON=C(c2ccccc2)c2nc(=O)on2C)cs1` [Example 30], the “% efficacy” value in series [7] stood at 78%; in series [10] it was 98%; in series [2], 100%. The compound also came in with an Eff. % in [4] of 90%. The compound further gave a LogP in series [3] of 3.02.

On to `CCC(C)SC(=O)Nc1nc(CON=C(c2ccccc2)c2nc(=O)on2C)cs1` (centres unmarked) [Example 31], for which the “% efficacy” value turned out to be 82% in series [1] and 100% in series [2]. Moreover, in series [3], the LogP is 3.46.

`COc1cccc(/C(=N/OCc2csc(NC(=O)OC3CCCCC3)n2)c2nc(=O)on2C)c1` [Example 33, Cyclohexyl {4-[({[(Z)-(3-methoxyphenyl)(2-methyl-5-oxo-2,5-dihydro-1,2,4-oxadiazol-3-yl)methylene]amino}oxy)methyl]-1,3-thiazol-2-yl}carbamate]: the “% efficacy” value in series [2] is on record as 88%. Further, in series [5], the chromatographic logP stood at 3.57.

As to `COc1cccc(/C(=N/OCc2csc(NC(=O)OC(C)(C)C)n2)c2nc(=O)on2C)c1` [Example 34], the “% efficacy” value in series [2] was 100%. This compound gave an Eff. % in [4] of 95%. Moreover, in series [3], the LogP is 3.13.

With `Cn1oc(=O)nc1/C(=N\OCc1csc(NC(=O)Cc2ccc(Cl)cc2)n1)c1ccccc1` [Example 98, 2-(4-chlorophenyl)-N-{4-[({[(Z)-(2-methyl-5-oxo-2,5-dihydro-1,2,4-oxadiazol-3-yl)(phenyl)methylene]amino}oxy)methyl]-1,3-thiazol-2-yl}acetamide], the chromatographic logP in series [5] was determined as 3.23.

Turning to `Cn1oc(=O)nc1/C(=N\OCc1csc(Br)n1)c1ccccc1` [Example 99, 3-[(Z)-{[(2-bromo-1,3-thiazol-4-yl)methoxy]imino}(phenyl)methyl]-2-methyl-1,2,4-oxadiazol-5(2H)-one], in series [5], the chromatographic logP stood at 2.68.

Turning to `Cn1oc(=O)nc1/C(=N\OCc1csc(NC(=S)Cc2ccc(Cl)cc2)n1)c1ccccc1` [Example 100, 2-(4-chlorophenyl)-N-{4-[({[(Z)-(2-methyl-5-oxo-2,5-dihydro-1,2,4-oxadiazol-3-yl)(phenyl)methylene]amino}oxy)methyl]-1,3-thiazol-2-yl}ethanethioamide], in series [5], the chromatographic logP is 4.04.

Take `Cn1oc(=O)nc1/C(=N/OCc1csc(NC(=S)Cc2ccc(Cl)cc2)n1)c1ccccc1` [Example 101, 2-(4-chlorophenyl)-N-{4-[({[(E)-(2-methyl-5-oxo-2,5-dihydro-1,2,4-oxadiazol-3-yl)(phenyl)methylene]amino}oxy)methyl]-1,3-thiazol-2-yl}ethanethioamide]: the chromatographic logP in series [5] was found to be 3.85.

In series [5], `CN(O)C(=N)/C(=N\OCc1csc(N)n1)c1ccccc1` [Example V-2, (2Z)-2-{[(2-amino-1,3-thiazol-4-yl)methoxy]imino}-N-hydroxy-N-methyl-2-phenylethanimidamide] registered a chromatographic logP of 0.47.

On to `CN(O)C(=N)/C(=N\OCc1csc(Br)n1)c1ccccc1` [Example V-3, (2Z)-2-{[(2-bromo-1,3-thiazol-4-yl)methoxy]imino}-N-hydroxy-N-methyl-2-phenylethanimidamide], for which the chromatographic logP in series [5] worked out at 1.34.

As to `[H]/N=C(/C(=N\OCc1csc(NC(=O)OCCc2ccccc2)n1)c1ccccc1)N(O)CC` [Example V-4, 2-phenylethyl (4-{[({(1Z,2Z)-2-[ethyl(hydroxy)amino]-2-imino-1-phenylethylidene}amino)oxy]methyl}-1,3-thiazol-2-yl)carbamate], in [5], the chromatographic logP turned out to be 2.07.

What is called LogP is the decadic logarithm of the partition coefficient of the neutral form, usually between octanol and water. Low values mean a more hydrophilic compound, high ones a more lipophilic compound. What is called chromatographic logP is lipophilicity estimated from chromatographic retention.
